Experimental data: the supplement of paper PMC10949913

Columns and labels:
Details in all cases: 48 h
CU-ACC2 [1] = assay: AC50 viability; higher = less potent
How it was run: (§1)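 For each of three adrenocortical carcinoma cell lines, 500–1,000 cells/well were placed in 5 µL medium in 1,536-well plates. A 23 nL volume of every library compound was added at 11 concentrations. Following 48 h, a 15-minute room-temperature CellTiter-Glo step preceded luminescence reading, with signals normalised per plate to vehicle and empty-well controls. AC50 and area under the curve were derived by curve fitting, retaining only inhibitory or non-responding curve classes.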

CU-ACC1 [2] = assay: AC50 viability; higher = less potent
How it was run: as §1

NCI-H295R [3] = assay: AC50 viability; higher = less potent
How it was run: as §1

CU-ACC2 [4] = assay: area under concentration-response curve (viability) (AUC (a.u.)); higher = less active
How it was run: as §1

CU-ACC1 [5] = assay: as above
How it was run: as §1

NCI-H295R [6] = assay: as above
How it was run: as §1

Compound	AC50 viability (CU-ACC2 [1]) [µM]	AC50 viability (CU-ACC1 [2]) [µM]	AC50 viability (NCI-H295R [3]) [µM]	area under concentration-response curve (CU-ACC2 [4])	area under concentration-response curve (CU-ACC1 [5])	area under concentration-response curve (NCI-H295R [6])
Cc1cc(Nc2cc(N3CCN(C)CC3)nc(/C=C/c3ccccc3)n2)n[nH]1	13.2	11.8	6.61	369	401	414
CC[C@@H]1C(=O)N(C)c2cnc(Nc3ccc(C(=O)NC4CCN(C)CC4)cc3OC)nc2N1C1CCCC1	16.6	20.9	16.6	461	412	404
Cc1ccc(NC(=O)c2ccc3c(c2)OCCO3)cc1NC(=O)c1ccc2nc(OCCN3CCCC3)ccc2c1	0.456	6.45	2.88	373	303	398
COCCNCCc1cccc(Nc2ncc3c(n2)-c2ccccc2[C@H](c2ccccc2F)C3)c1	26.3	11.8	8.33	502	496	467
Cc1nc(Nc2n[nH]c3c2CN(C(=O)N[C@H](CN(C)C)c2ccccc2)C3(C)C)c2sccc2n1	5.25	9.34	9.34	442	433	462
CCn1nnc2c(N3CCOCC3)nc(-c3ccc(NC(=O)Nc4ccc(C(=O)N5CCN(C)CC5)cc4)cc3)nc21	0.468	1.18	5.9	434	357	453
Cc1c(CN2CCN([S+](C)(=O)[O-])CC2)sc2c(N3CCOCC3)nc(-c3cnc(N)nc3)nc12	0.468	0.525	1.18	403	282	333
C[C@H]1COCCN1c1cc(C2([S+](=O)([O-])C3CC3)CC2)nc(-c2ccc(NC(=S)NCCO)cc2)n1	0.525	0.295	0.661	394	325	366
CCc1cc(-c2n[nH]c(C)c2-c2ccc3c(c2)OCCO3)c(O)cc1O	23.5	23.5	20.9	611	529	565
CC(=O)c1cc2c(o1)C(=O)c1ccccc1C2=O	1.66	0.263	0.934	377	270	351
COC(C)(C)CCn1nc(Nc2c(C)cccc2C)c2cnc(Nc3ccc(OCCN4CCCC4)c(F)c3)nc21	14.8	14.8	11.8	467	506	513
ClC/1=C(NCCN2CCOCC2)/C(=O)C3=C(C=CC=N3)C1=O	8.33	2.35	5.9	409	387	440
C=C1/C(=C\C=C2/CCC[C@]3(C)[C@@H]([C@H](C)/C=C/[C@H](C)C(C)C)CC[C@@H]23)C[C@@H](O)C[C@@H]1O	7.42	6.61	7.42	400	381	372
Cc1nn(Cc2ccccc2Cl)c(C)c1CN(C)CC(O)COc1ccc(Cl)cc1 (stereo not given)	7.42	8.33	8.33	507	418	482
C/C=C1\NC(=O)[C@H]2CSSCC/C=C\[C@H](CC(=O)N[C@H](C(C)C)C(=O)N2)OC(=O)[C@H](C(C)C)NC1=O	0.0235	0.00742	0.118	224	235	293
O=C(Nc1ccnc(NC(=O)C2CC2)c1)c1c(Cl)cccc1Cl	4.17	9.34	18.6	463	390	479
COCCOc1ccc2c(c1)ncn2-c1ccc2cccc(N3CCC(N)CC3)c2n1	10.5	16.6	6.61	370	409	420
Fc1ccc2[nH]ccc2c1-c1nc(N2CCOCC2)c2sc(CN3CCN(CC4CC4)CC3)cc2n1	26.3	18.6	20.9	462	482	487
COc1ccc(-c2nc(N3CCOCC3)c3sc(CN(C)c4ncc(C(=O)NO)cn4)cc3n2)cn1	0.186	0.0417	0.059	281	211	285
CC(C)c1cnn2c(NCc3ccccc3)cc(N[C@@H](CO)[C@H](O)CO)nc12	0.295	0.372	1.48	326	372	395
Cc1ccc(NC(=O)NCc2ccc3c(c2)CN(C2CCC(=O)NC2=O)C3=O)cc1Cl (stereo not given)	0.0332	0.00372	0.0166	289	137	234
CCN(CC)CCNC(=O)c1ccc2nc(-c3ccccc3)c(-c3ccc(CN4CCC(n5c(=O)[nH]c6ccccc65)CC4)cc3)nc2c1	7.42	9.34	9.34	479	444	440
C[C@@H]1O[C@@H](O[C@H]2C[C@@H](O)[C@]3(CO)[C@H]4[C@H](O)C[C@]5(C)[C@H](CC[C@]5(O)[C@@H]4CC[C@]3(O)C2)C/6=C/C(=O)OC6)[C@H](O)[C@H](O)[C@H]1O	0.0468	0.0263	0.0934	335	215	264
CC(C)[C@]12O[C@H]1[C@@H]3O[C@@]34[C@@]5(C)CC\C6=C(COC6=O)/[C@@H]5C[C@@H]7O[C@]47C2=O	0.0525	0.0417	0.833	270	245	329
Nc1cc(C(F)(F)F)c(-c2cc(N3CCOCC3)nc(N3CCOCC3)n2)cn1	4.68	9.34	2.63	539	400	449
